Data reported in ChEMBL document CHEMBL5247581, “Design, synthesis and biological evaluation of new quinazolinone-benzopyran-indole hybrid compounds promoting osteogenesis through BMP2 upregulation” (Eur J Med Chem, 2022).
Active and inactive are the calls of the source. The rule behind the calls is not given here.

Legend:
[1] = test system: Calvarial osteoblast; test: Induction of osteogenesis in mouse Osteoblast cells assessed as fold increase in RUNX2 gene expression at 100 to 10000 pM by qRT-PCR analysis; format: functional; conditions: dose 100-10000 pM
[2] = test system: Calvarial osteoblast; test: Induction of osteogenesis in mouse Osteoblast cells assessed as ALP activity at 0.001 to 100 uM measured for 24 to 48 hrs; format: functional; conditions: dose 0.001-100 µM, time 24-48 hrs
[3] = test system: Calvarial osteoblast; test: Cytotoxicity against mouse Osteoblast cells assessed as reduction in cell viability at 0.000001 to 1 uM measured for 24 to 48 hrs by MTT assay; format: toxicity, cell-based; conditions: dose lower 1e-06 µM, time lower 24 hrs, dose upper 1 µM, time upper 48 hrs
[4] = test system: Calvarial osteoblast; test: Induction of osteogenesis in mouse Osteoblast cells assessed as ALP activity at 0.001 to 100 uM measured for 24 hrs; format: functional, cell-based; conditions: dose 0.001-100 µM
[5] = test system: Calvarial osteoblast; test: Induction of osteoblast differentiation in mouse calvarial osteoblasts cells assessed as ALP activity at 1 to 10000 pM measured for 7 days; format: functional, cell-based; conditions: dose 1-10000 pM, time 7.0 day
[6] = test system: Calvarial osteoblast; test: Induction of osteogenesis in mouse Osteoblast cells assessed as ALP activity at 0.001 to 100 uM measured for 48 hrs; format: functional, cell-based; conditions: dose 0.001-100 µM
[7] = test system: Calvarial osteoblast; test: Induction of osteogenesis in mouse Osteoblast cells assessed as ALP activity at 100 pM measured for 48 hrs; format: functional, cell-based
[8] = test system: Calvarial osteoblast; test: Cytotoxicity against mouse Osteoblast cells assessed as reduction in cell viability at 100 uM measured for 24 to 48 hrs by MTT assay; format: toxicity, cell-based; conditions: time 24-48 hrs
[9] = test system: Calvarial osteoblast; test: Induction of osteogenesis in mouse Osteoblast cells assessed as ALP activity at 10 nM measured for 24 to 48 hrs; format: functional, cell-based; conditions: time 24-48 hrs
[10] = test system: Calvarial osteoblast; test: Induction of osteogenesis in mouse Osteoblast cells assessed as ALP activity at 1 to 1000 pM measured for 24 to 48 hrs; format: functional, cell-based; conditions: dose 1-1000 pM, time 24-48 hrs
[11] = test system: Calvarial osteoblast; test: Induction of osteogenesis in mouse Osteoblast cells assessed as ALP activity at 100 to 1000000 pM measured for 24 to 48 hrs; format: functional, cell-based; conditions: dose 100-1e+06 pM, time 24-48 hrs

SMILES	Activity [2]	further results
CCCc1cc(-c2nc3ccccc3c(=O)n2C)cc2c1OC(N)=C(C#N)C2c1c(C)[nH]c2ccc(OC)cc12 (stereo not drawn)	11%	fold change (FC) [1]: 3
CCc1cc(-c2nc3ccccc3c(=O)n2CC)cc2c1OC(N)=C(C#N)C2c1c(C)[nH]c2ccccc12 (stereo not drawn)	38%	Activity [3]: Non-Toxic; Activity [4]: inactive; Activity [5]: inactive; Activity [6]: Active; Activity [7]: Active; Activity [8]: Toxic
CCn1c(-c2cc3c(c(C(C)(C)C)c2)OC(N)=C(C#N)C3c2c(C)[nH]c3ccc(OC)cc23)nc2ccccc2c1=O (stereo not drawn)	1%	
N#CC1=Cc2ccccc2OC1N (stereo not drawn)	18%	
CCc1cc(-c2nc3ccccc3c(=O)[nH]2)cc2c1OC(N)=C(C#N)C2c1c(C)[nH]c2ccccc12 (stereo not drawn)	inactive	
Cc1[nH]c2ccc(Cl)cc2c1C1C(C#N)=C(N)Oc2c(C(C)C)cc(-c3nc4ccccc4c(=O)n3C)cc21 (stereo not drawn)	5%	
Cc1[nH]c2ccccc2c1C1C(C#N)=C(N)Oc2ccccc21 (stereo not drawn)	inactive	Activity [9]: inactive; Activity [10]: inactive
CCn1c(-c2cc(C(C)C)c3c(c2)C(c2c(C)[nH]c4ccccc24)C(C#N)=C(N)O3)nc2ccccc2c1=O (stereo not drawn)	6%	
CCn1c(-c2cc(C)c3c(c2)C(c2c(C)n(C)c4ccccc24)C(C#N)=C(N)O3)nc2ccccc2c1=O (stereo not drawn)	14%	
Cc1[nH]c2ccc(Cl)cc2c1C1C(C#N)=C(N)Oc2c1cc(-c1nc3ccccc3c(=O)[nH]1)cc2C(C)(C)C (stereo not drawn)	2%	
CCc1cc(-c2nc3ccccc3c(=O)n2C)cc2c1OC(N)=C(C#N)C2c1c(C)[nH]c2ccc(Cl)cc12 (stereo not drawn)	1%	
Cc1[nH]c2ccc(Cl)cc2c1C1C(C#N)=C(N)Oc2c1cc(-c1nc3ccccc3c(=O)n1C)cc2C(C)(C)C (stereo not drawn)	7%	
CCn1c(-c2cc(C)c3c(c2)C(c2c(C)n(CC)c4ccccc24)C(C#N)=C(N)O3)nc2ccccc2c1=O (stereo not drawn)	inactive	
Cc1[nH]c2ccccc2c1C1C(C#N)=C(N)Oc2c1cc(-c1nc3ccccc3c(=O)n1C)cc2C(C)(C)C (stereo not drawn)	inactive	
CCc1cc(-c2nc3ccccc3c(=O)n2C)cc2c1OC(N)=C(C#N)C2c1c(C)[nH]c2ccccc12 (stereo not drawn)	7%	
Cc1cc2ccccc2[nH]1	inactive	Activity [9]: inactive; Activity [11]: inactive; Activity [10]: inactive
